{"source": "patent US7786083B2", "about": "“Metastin derivatives and use thereof” (Takeda Pharmaceutical Company Limited, priority 2006, dated 2010)", "tested_on": "metastin receptors", "test": "Measurement of agonist activity by assaying changes in intracellular calcium ion level (FLIPR, Fluo-4 NW)", "type": "cell-based, human", "conditions": "specific activity of the EC50 of a test compound based on the EC50 of Metastin (45-54), metastin receptor expression CHO cells", "method_in_brief": "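CHO/dhfr⁻ cells stably expressing human or rat metastin receptor, seeded 3×10^4/well for 24 h, loaded with Fluo-4 NW 30 min at 37 °C in HBSS with 0.1% BSA, 20 mM HEPES pH 7.4 and 1 mM probenecid. Compound-stimulated intracellular calcium change read on FLIPR.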", "note": "*1 amine or outer side, *2 acyl side, *3 side chain or, on linkers, in order; H or OH if unused. Where a SMILES comes first, the peptide text is derived from it. [ ]: non-standard residue; d: D form. Glyψ(E-CHCH)Leu = CC(C)C[C@H](/C=C/CN[*:1])C(=O)[*:2]; Glyψ(CH2S)Leu = CC(C)C[C@H](SCCN[*:1])C(=O)[*:2]; Arg(Me) = CNC(=N)NCCC[C@H](N)C(=O)O; Dap(CONH2) = NC(=O)NC[C@H](N)C(=O)O; Ala(cPr) = N[C@@H](CC1CC1)C(=O)O; Hyp = O=C(O)[C@@H]1C[C@@H](O)CN1; tBuAla = CC(C)(C)C[C@H](N)C(=O)O; Cha = N[C@@H](CC1CCCCC1)C(=O)O; Cit = NC(=O)NCCC[C@H](N)C(=O)O; Nle = CCCC[C@H](N)C(=O)O; Nva = CCC[C@H](N)C(=O)O", "data": [{"smiles": "CNC(=N)NCCC[C@H](NC(=O)[C@@H](/C=C/CNC(=O)[C@H](CC1CCCCC1)NC(=O)[C@@H](NC(=O)[C@H](CCC(N)=O)NC(=O)[C@@H]1C[C@@H](O)CN1C(=O)[C@@H](Cc1ccc(O)cc1)NC(C)=O)[C@@H](C)O)CC(C)C)C(=O)N[C@@H](Cc1c[nH]c2ccccc12)C(N)=O", "note": "[Compound No. 913, des(1)-Ac-[D-Tyr2,Hyp3,Gln4,Thr5,Cha6,Gly7Ψ((E)CH═CH)Leu8,Arg(Me)9,Trp10]MS10] (Ac-[dY][Hyp]QT[Cha][Glyψ(E-CHCH)Leu][Arg(Me)]W-NH2)", "values": [{"measurement": "Specific Activity", "value": 1.4}]}, {"smiles": "CNC(=N)NCCC[C@H](NC(=O)[C@@H](/C=C/CNC(=O)[C@H](CC1CCCCC1)NC(=O)[C@@H](NC(=O)[C@H](CCCNC(N)=O)NC(=O)[C@@H]1C[C@@H](O)CN1C(=O)[C@@H](Cc1ccc(O)cc1)NC(C)=O)[C@@H](C)O)CC(C)C)C(=O)N[C@@H](Cc1c[nH]c2ccccc12)C(N)=O", "note": "[Compound No. 914, des(1)-Ac-[D-Tyr2,Hyp3,Cit4,Thr5,Cha6,Gly7Ψ((E)CH═CH)Leu8,Arg(Me)9,Trp10]MS10] (Ac-[dY][Hyp][Cit]T[Cha][Glyψ(E-CHCH)Leu][Arg(Me)]W-NH2)", "values": [{"measurement": "Specific Activity", "value": 0.9}]}, {"smiles": "CNC(=N)NCCC[C@H](NC(=O)[C@@H](/C=C/CNC(=O)[C@H](CC1CCCCC1)NC(=O)[C@@H](NC(=O)[C@H](CCC(=O)O)NC(=O)[C@@H]1C[C@@H](O)CN1C(=O)[C@@H](Cc1ccc(O)cc1)NC(C)=O)[C@@H](C)O)CC(C)C)C(=O)N[C@@H](Cc1c[nH]c2ccccc12)C(N)=O", "note": "[Compound No. 915, des(1)-Ac-[D-Tyr2,Hyp3,Glu4,Thr5,Cha6,Gly7Ψ((E)CH═CH)Leu8,Arg(Me)9,Trp10]MS10] (Ac-[dY][Hyp]ET[Cha][Glyψ(E-CHCH)Leu][Arg(Me)]W-NH2)", "values": [{"measurement": "Specific Activity", "value": 4.6}]}, {"smiles": "CNC(=N)NCCC[C@H](NC(=O)[C@H](CC1CC1)NC(=O)CNC(=O)[C@H](Cc1ccccc1)NC(=O)[C@@H](NC(=O)[C@H](CC(N)=O)NC(=O)[C@@H]1C[C@@H](O)CN1C(=O)[C@@H](Cc1ccc(O)cc1)NC(C)=O)[C@@H](C)O)C(=O)N[C@@H](Cc1c[nH]c2ccccc12)C(N)=O", "note": "[Compound No. 916, des(1)-Ac-[D-Tyr2,Hyp3,Thr5,Ala(cPr)8,Arg(Me)9,Trp10]MS10] (Ac-[dY][Hyp]NTFG[Ala(cPr)][Arg(Me)]W-NH2)", "values": [{"measurement": "Specific Activity", "value": 0.8}]}, {"smiles": "CNC(=N)NCCC[C@H](NC(=O)[C@H](COC)NC(=O)CNC(=O)[C@H](Cc1ccccc1)NC(=O)[C@@H](NC(=O)[C@H](CC(N)=O)NC(=O)[C@@H]1C[C@@H](O)CN1C(=O)[C@@H](Cc1ccc(O)cc1)NC(C)=O)[C@@H](C)O)C(=O)N[C@@H](Cc1c[nH]c2ccccc12)C(N)=O", "note": "[Compound No. 917, des(1)-Ac-[D-Tyr2,Hyp3,Thr5,Ser(Me)8,Arg(Me)9,Trp10]MS10] (Ac-[dY][Hyp]NTFGS(Me)[Arg(Me)]W-NH2)", "values": [{"measurement": "Specific Activity", "value": 0.8}]}, {"smiles": "CCC[C@H](NC(=O)CNC(=O)[C@H](Cc1ccccc1)NC(=O)[C@@H](NC(=O)[C@H](CC(N)=O)NC(=O)[C@@H]1C[C@@H](O)CN1C(=O)[C@@H](Cc1ccc(O)cc1)NC(C)=O)[C@@H](C)O)C(=O)N[C@@H](CCCNC(=N)NC)C(=O)N[C@@H](Cc1c[nH]c2ccccc12)C(N)=O", "note": "[Compound No. 918, des(1)-Ac-[D-Tyr2,Hyp3,Thr5,Nva8,Arg(Me)9,Trp10]MS10] (Ac-[dY][Hyp]NTFG[Nva][Arg(Me)]W-NH2)", "values": [{"measurement": "Specific Activity", "value": 0.7}]}, {"smiles": "CNC(=N)NCCC[C@H](NC(=O)[C@H](COC)NC(=O)CNC(=O)[C@H](CC1CCCCC1)NC(=O)[C@@H](NC(=O)[C@H](CC(N)=O)NC(=O)[C@@H]1C[C@@H](O)CN1C(=O)[C@@H](Cc1ccc(O)cc1)NC(C)=O)[C@@H](C)O)C(=O)N[C@@H](Cc1c[nH]c2ccccc12)C(N)=O", "note": "[Compound No. 920, des(1)-Ac-[D-Tyr2,Hyp3,Thr5,Cha6,Ser(Me)8,Arg(Me)9,Trp10]MS10] (Ac-[dY][Hyp]NT[Cha]GS(Me)[Arg(Me)]W-NH2)", "values": [{"measurement": "Specific Activity", "value": 0.5}]}, {"smiles": "CCC[C@H](NC(=O)CNC(=O)[C@H](CC1CCCCC1)NC(=O)[C@@H](NC(=O)[C@H](CC(N)=O)NC(=O)[C@@H]1C[C@@H](O)CN1C(=O)[C@@H](Cc1ccc(O)cc1)NC(C)=O)[C@@H](C)O)C(=O)N[C@@H](CCCNC(=N)NC)C(=O)N[C@@H](Cc1c[nH]c2ccccc12)C(N)=O", "note": "[Compound No. 921, des(1)-Ac-[D-Tyr2,Hyp3,Thr5,Cha6,Nva8,Arg(Me)9,Trp10]MS10] (Ac-[dY][Hyp]NT[Cha]G[Nva][Arg(Me)]W-NH2)", "values": [{"measurement": "Specific Activity", "value": 0.5}]}, {"smiles": "CNC(=N)NCCC[C@H](NC(=O)[C@H](COC)NC(=O)CNC(=O)[C@H](CC1CCCCC1)NC(=O)[C@@H](NC(=O)[C@H](CC(N)=O)NC(=O)[C@H](CCC(=O)O)NC(=O)[C@@H](Cc1ccc(O)cc1)NC(C)=O)[C@@H](C)O)C(=O)N[C@@H](Cc1c[nH]c2ccccc12)C(N)=O", "note": "[Compound No. 923, des(1)-Ac-[D-Tyr2,Glu3,Thr5,Cha6,Ser(Me)8,Arg(Me)9,Trp10]MS10] (Ac-[dY]ENT[Cha]GS(Me)[Arg(Me)]W-NH2)", "values": [{"measurement": "Specific Activity", "value": 0.5}]}, {"smiles": "CCC[C@H](NC(=O)CNC(=O)[C@H](CC1CCCCC1)NC(=O)[C@@H](NC(=O)[C@H](CC(N)=O)NC(=O)[C@H](CCC(=O)O)NC(=O)[C@@H](Cc1ccc(O)cc1)NC(C)=O)[C@@H](C)O)C(=O)N[C@@H](CCCNC(=N)NC)C(=O)N[C@@H](Cc1c[nH]c2ccccc12)C(N)=O", "note": "[Compound No. 924, des(1)-Ac-[D-Tyr2,Glu3,Thr5,Cha6,Nva8,Arg(Me)9,Trp10]MS10] (Ac-[dY]ENT[Cha]G[Nva][Arg(Me)]W-NH2)", "values": [{"measurement": "Specific Activity", "value": 0.4}]}, {"smiles": "CC(=O)N[C@H](Cc1ccc(O)cc1)C(=O)N1C[C@H](O)C[C@H]1C(=O)N[C@@H](CC(N)=O)C(=O)N[C@H](C(=O)N[C@@H](Cc1ccccc1)C(=O)NC/C=C/[C@@H](CC(C)C)C(=O)N[C@@H](CCCNC(=N)N)C(=O)N[C@@H](Cc1c[nH]c2ccccc12)C(N)=O)[C@@H](C)O", "note": "[Compound No. 925, des(1)-Ac-[D-Tyr2,Hyp3,Thr5,Gly7Ψ((E)CH═CH)Leu8,Trp10]MS10] (Ac-[dY][Hyp]NTF[Glyψ(E-CHCH)Leu]RW-NH2)", "values": [{"measurement": "Specific Activity", "value": 0.4}]}, {"smiles": "CC(=O)N[C@H](Cc1ccc(O)cc1)C(=O)N1C[C@H](O)C[C@H]1C(=O)N[C@@H](CC(N)=O)C(=O)N[C@H](C(=O)N[C@@H](CC1CCCCC1)C(=O)NC/C=C/[C@@H](CC(C)C)C(=O)N[C@@H](CCCNC(=N)N)C(=O)N[C@@H](Cc1c[nH]c2ccccc12)C(N)=O)[C@@H](C)O", "note": "[Compound No. 926, des(1)-Ac-[D-Tyr2,Hyp3,Thr5,Cha6,Gly7Ψ((E)CH═CH)Leu8,Trp10]MS10] (Ac-[dY][Hyp]NT[Cha][Glyψ(E-CHCH)Leu]RW-NH2)", "values": [{"measurement": "Specific Activity", "value": 0.6}]}, {"smiles": "CC(=O)N[C@H](Cc1ccc(O)cc1)C(=O)N1C[C@H](O)C[C@H]1C(=O)N[C@@H](CNC(N)=O)C(=O)N[C@H](C(=O)N[C@@H](CC1CCCCC1)C(=O)NC/C=C/[C@@H](CC(C)C)C(=O)N[C@@H](CCCNC(=N)N)C(=O)N[C@@H](Cc1c[nH]c2ccccc12)C(N)=O)[C@@H](C)O", "note": "[Compound No. 927, des(1)-Ac-[D-Tyr2,Hyp3,Alb4,Thr5,Cha6,Gly7Ψ((E)CH═CH)Leu8,Trp10]MS10] (Ac-[dY][Hyp][Dap(CONH2)]T[Cha][Glyψ(E-CHCH)Leu]RW-NH2)", "values": [{"measurement": "Specific Activity", "value": 0.5}]}, {"smiles": "CNC(=N)NCCC[C@H](NC(=O)[C@H](CC(C)C)SCCNC(=O)[C@H](Cc1ccccc1)NC(=O)[C@@H](NC(=O)[C@H](CC(N)=O)NC(=O)[C@@H]1C[C@@H](O)CN1C(=O)[C@@H](Cc1ccc(O)cc1)NC(C)=O)[C@@H](C)O)C(=O)N[C@@H](Cc1c[nH]c2ccccc12)C(N)=O", "note": "[Compound No. 929, des(1)-Ac-[D-Tyr2,Hyp3,Thr5,Gly7Ψ(CH2S)Leu8,Arg(Me)9,Trp10]MS10] (Ac-[dY][Hyp]NTF[Glyψ(CH2S)Leu][Arg(Me)]W-NH2)", "values": [{"measurement": "Specific Activity", "value": 1.2}]}, {"smiles": "CNC(=N)NCCC[C@H](NC(=O)[C@H](CC(C)C)SCCNC(=O)[C@H](CC1CCCCC1)NC(=O)[C@@H](NC(=O)[C@H](CC(N)=O)NC(=O)[C@@H]1C[C@@H](O)CN1C(=O)[C@@H](Cc1ccc(O)cc1)NC(C)=O)[C@@H](C)O)C(=O)N[C@@H](Cc1c[nH]c2ccccc12)C(N)=O", "note": "[Compound No. 931, des(1)-Ac-[D-Tyr2,Hyp3,Thr5,Cha6,Gly7Ψ(CH2S)Leu8,Arg(Me)9,Trp10]MS10] (Ac-[dY][Hyp]NT[Cha][Glyψ(CH2S)Leu][Arg(Me)]W-NH2)", "values": [{"measurement": "Specific Activity", "value": 1.7}]}, {"smiles": "CCCC[C@H](NC(=O)CNC(=O)[C@H](CC1CCCCC1)NC(=O)[C@@H](NC(=O)[C@H](CC(N)=O)NC(=O)[C@@H]1C[C@@H](O)CN1C(=O)[C@@H](Cc1ccc(O)cc1)NC(C)=O)[C@@H](C)O)C(=O)N[C@@H](CCCNC(=N)NC)C(=O)N[C@@H](Cc1c[nH]c2ccccc12)C(N)=O", "note": "[Compound No. 932, des(1)-Ac-[D-Tyr2,Hyp3,Thr5,Cha6,Nle8,Arg(Me)9,Trp10]MS10] (Ac-[dY][Hyp]NT[Cha]G[Nle][Arg(Me)]W-NH2)", "values": [{"measurement": "Specific Activity", "value": 0.6}]}, {"smiles": "CNC(=N)NCCC[C@H](NC(=O)[C@H](CC(C)(C)C)NC(=O)CNC(=O)[C@H](CC1CCCCC1)NC(=O)[C@@H](NC(=O)[C@H](CC(N)=O)NC(=O)[C@@H]1C[C@@H](O)CN1C(=O)[C@@H](Cc1ccc(O)cc1)NC(C)=O)[C@@H](C)O)C(=O)N[C@@H](Cc1c[nH]c2ccccc12)C(N)=O", "note": "[Compound No. 933, des(1)-Ac-[D-Tyr2,Hyp3,Thr5,Cha6,Leu(Me)8,Arg(Me)9,Trp10]MS10] (Ac-[dY][Hyp]NT[Cha]G[tBuAla][Arg(Me)]W-NH2)", "values": [{"measurement": "Specific Activity", "value": 1.4}]}, {"smiles": "CNC(=N)NCCC[C@H](NC(=O)[C@H](CC1CCCCC1)NC(=O)CNC(=O)[C@H](CC1CCCCC1)NC(=O)[C@@H](NC(=O)[C@H](CC(N)=O)NC(=O)[C@@H]1C[C@@H](O)CN1C(=O)[C@@H](Cc1ccc(O)cc1)NC(C)=O)[C@@H](C)O)C(=O)N[C@@H](Cc1c[nH]c2ccccc12)C(N)=O", "note": "[Compound No. 934, des(1)-Ac-[D-Tyr2,Hyp3,Thr5,Cha6,8,Arg(Me)9,Trp10]MS10] (Ac-[dY][Hyp]NT[Cha]G[Cha][Arg(Me)]W-NH2)", "values": [{"measurement": "Specific Activity", "value": 3.5}]}]}
